These results are taken from patent publication US20080226718A1, “Indole and Azaindole Derivatives For the Treatment of Inflammatory and Autoimmune Diseases” (Brane Discovery S.r.l, priority 2005, published 2008).

Each structure is given as a SMILES string.

Assay [1] concerns encephalitogenic lymphocytes. As to the kind of experiment: Spontaneous adhesion of encephalitogenic T cells on purified ICAM-1. The format is cell-based, SJL mice. Conditions: Mus musculus, Lymphocyte, 1 h; for inhibition at 5 µM: [cpd] 5 μM, read-out: Inhibition of Spontaneous Adhesion in encephalitogenic lymphocytes (% of control/non-treated cells) ICAM-1; for inhibition at 10 µM: [cpd] 10 μM; for inhibition at 50 µM: [cpd] 50 μM. On the procedure: (§1) Spontaneous adhesion of encephalitogenic lymphocytes was measured in adhesion assays on purified ICAM-1 and VCAM-1 as previously described (Constantin G. et al., J. Immunol. 162, 1144-1149, 1999). Autoreactive T cells were obtained from SJL mice immunized with PLP139-151 as described (Piccio L. et al., J. Immunol. 168, 1940-1949, 2002). Lymphocytes were treated with test compound at concentrations between 5-100 μM for 1 h, while control/untreated cells were treated with vehicle (DMSO). Results are expressed as percentage of inhibition over control (=100%) ±S.D and are the mean of three-four experiments.
(§2) ICAM-1 and VCAM-1 are adhesion molecules from the family of immunoglobulins and control the migration of lymphocytes through the endothelium during inflammatory responses. Encephalitogenic T cells are activated lymphocytes displaying spontaneous adhesion on ICAM-1 and VCAM-1 and have increased migration capacities in inflammation sites. Spontaneous adhesion of encephalitogenic lymphocytes was measured in adhesion assays on purified ICAM-1 and VCAM-1 as described in the method.

The subject of assay [2] is encephalitogenic lymphocytes. As to the kind of experiment: Spontaneous adhesion of encephalitogenic T cells on purified VCAM-1. In kind it is cell-based, SJL mice. Conditions: Mus musculus, Lymphocyte, 1 h. As to the method:
as §1, §2

For assay [3], the system named is encephalitogenic lymphocytes. The assay is described as follows: Chemokine-induced adhesion of murine encephalitogenic T cells to ICAM-1. To be noted: for Chemokine-induced Adhesion in encephalitogenic lymphocytes, Mean counts ± S.D., in presence of MIP3-β stimulation: 1 μM CCL19 (MIP-3beta); for Chemokine-induced Adhesion in encephalitogenic lymphocytes, Mean counts ± S.D., in presence of MIP3-β stimulation / Adhesion in encephalitogenic lymphocytes, Mean counts ± S.D., in absence of MIP3-β stimulation: ICAM-1. The format is cell-based, SJL mice. On the procedure: (§3) Adhesion was performed on purified integrin ligands and was evaluated as reported in Constantin G. et al., Immunity, 16, 759-769, 2000. Briefly, primary naïve lymphocytes, polymorphonuclear neutrophils (PMNs) or monocytes were isolated form healthy donors. In other experiments, murine autoreactive T cells were obtained from SJL mice immunized with PLP139-151 as described (Piccio L. et al., J. Immunol, 168, 1940-1949, 2002). Cells were resuspended at 4×10^6/ml in PBS, CaCl2, MgCl2 1 mM, 10% FCS, pH 7.2. Adhesion assays were performed on eighteen well glass slides coated overnight at 4° C. with ligands for CR3 (fibrinogen) or LFA-1 (ICAM-1). 20 μl of cell suspension were added to the wells and stimulated at 37° C. with 5 μl of agonists prior to washing, fixation and computer-assisted enumeration of bound cells.
(§4) Integrin activation was measured as induction of rapid adhesion triggered by the classical chemoattractant N-formyl-L-methionyl-L-leucyl-phenylalanine (fMLP) (100 nM) or by the CC chemokine MIP3β (CCL19, 1 μM). PMNs and monocytes were triggered to adhere to fibrinogen (CR3 ligand); naive human lymphocytes or murine encephalitogenic T cells were triggered to adhere to ICAM-1 (LFA-1 ligand). Triggered adhesion was evaluated after 2 min of stimulation under static conditions. The cells were pretreated at 37° C. for 30-60 min with the indicated concentrations of the test compound. Results are expressed as percentage of inhibition over control (=100%) and are the mean of three experiments in the case of human leukocytes. Results are expressed as mean counts and are the mean counts ±S.D of three experiments and are the mean of three experiments in the case of murine encephalitogenic lymphocytes.
Chemokines trigger rapid arrest of lymphocytes in blood vessels through pertussis toxin-sensitive G protein coupled receptors. Rapid adhesion to purified ICAM-1 was measured in in vitro adhesion assays using control/untreated cells and lymphocytes treated with concentration between 5-50 μM for 1 h. Autoreactive lymphocytes were then stimulated with 1 μM CCL19 (MIP-3beta) for 3 min. […] These compounds were already efficient in blocking adhesion using a concentration of 5 μM for the cell treatment.

In assay [4] the test system is PMNs. The assay is described as follows: Chemokine-induced rapid adhesion of PMNs to fibrinogen (fMLP). In kind it is cell-based. Conditions: Homo sapiens, 2 min, fMLP 100 nM; for inhibition at 10 µM: [cpd] 10 μM; for inhibition at 25 µM: [cpd] 25 μM; for inhibition at 50 µM: [cpd] 50 μM. As to the method: as §3, §4
(§5) Integrin activation was measured as induction of rapid adhesion triggered by the “classical” chemoattractant fMLP (100 nM) or by the CC chemokine MIP3β (CCL19, 1 μM). PMNs were triggered to adhere to fibrinogen (CR3 ligand); lymphocytes were triggered to adhere to ICAM-1 (LFA-1 ligand).

Assay [5] concerns lymphocytes. As to the kind of experiment: Chemokine-induced rapid adhesion of lymphocytes to ICAM-1 (MIP3β). The format is cell-based. Conditions: Homo sapiens, Lymphocyte, MIP3β 1 μM; for inhibition at 10 µM: [cpd] 10 μM, read-out: Inhibition of Adhesion (%) Lymphocytes (MIP3-β); for inhibition at 25 µM: [cpd] 25 μM; for inhibition at 25 µM / inhibition at 50 µM: read-out: Inhibition of Adhesion (%) Lymphocytes (MIP3-β) (converted); for inhibition at 50 µM: [cpd] 50 μM. As to the method:
as §3, §4, §5

Assay [6] relates to monocytes. As to the kind of experiment: Chemokine-induced rapid adhesion of monocytes to fibrinogen (fMLP). In kind it is cell-based. To be noted: Homo sapiens, Monocyte, fMLP 100 nM; for inhibition at 10 µM: [cpd] 10 μM; for inhibition at 25 µM: [cpd] 25 μM; for inhibition at 50 µM: [cpd] 50 μM. As to the method:
as §3, §4

Assay [7] has as its system PMNs. The assay is described as follows: Chemotaxis assay, PMNs (fMLP). The format is cell-based. Conditions: Homo sapiens, fMLP 10 nM, 2 h; for inhibition at 10 µM: [cpd] 10 μM; for inhibition at 25 µM: [cpd] 25 μM; for inhibition at 50 µM: [cpd] 50 μM. On the procedure:
(§6) PMNs and monocytes migration was assessed using 1 or 3-μm pore size transwells (Bio-Coat Becton-Dickinson), while lymphocytes by using 5-elm pore size transwells.
(§7) Cells were in RPMI1640, containing 10% heat-inactivated Fetal Calf Serum (FCS) and 20 mM HEPES, pH 7.3, at 2×10^6/ml. 100 μl of cell suspension were added to the top well, and 600 μl of medium, containing chemoattractants and test compound, were added to the bottom well. Migration was evaluated after 2 h for PMNs and monocytes and after 4 h for lymphocytes. fMLP 10 nM (PMNs and monocytes) and MIP-3β 100 nM (lymphocytes) were utilized as chemoattractants. After fixation with 1.5% glutaraldehyde, migrated cells were counted by fluorescence-activated celli sorting using polystyrene beads (Polyscience) as an internal standard (Campbell J. J. et al. J. Cell. Biol. 134, 255-266, 1996; Laudanna C. et al. J. Biol. Chem. 273,46, 30306-30315, 1998).
(§8) Results are expressed as percentage of inhibition over control (=100%), and are the mean of three experiments.

Assay [8] has as its system lymphocytes. The assay is described as follows: Chemotaxis assay, lymphocytes (MIP-3β). The format is cell-based. Conditions: Homo sapiens, Lymphocyte, MIP-3β 100 nM, 4 h; for inhibition at 10 µM: [cpd] 10 μM, read-out: Inhibition of Chemotaxis (%) Lymphocytes (MIP3-β); for inhibition at 25 µM: [cpd] 25 μM; for inhibition at 25 µM / inhibition at 50 µM: read-out: Inhibition of Chemotaxis (%) Lymphocytes (MIP3-β) (converted); for inhibition at 50 µM: [cpd] 50 μM. As to the method:
as §6, §7, §8

The test system of assay [9] is monocytes. As to the kind of experiment: Chemotaxis assay, monocytes (fMLP). To be noted: Homo sapiens, Monocyte, fMLP 10 nM, 2 h; for inhibition at 10 µM: [cpd] 10 μM; for inhibition at 25 µM: [cpd] 25 μM; for inhibition at 50 µM: [cpd] 50 μM. In kind it is cell-based. On the procedure:
as §6, §7, §8

Setting [10] is: read-out: Inhibition of Spontaneous Adhesion in encephalitogenic lymphocytes (% of control/non-treated cells) ICAM-1 (converted).

As to `COC(=O)c1[nH]c2cc(OC)c(OC)cc2c1-c1ccccc1` [Example 3], the inhibition at 5 µM in assay [1] was found to be 78%; in assay [2] ([cpd] 5 μM, read-out: Inhibition of Spontaneous Adhesion in encephalitogenic lymphocytes (% of control/non-treated cells) VCAM-1), 6%. Besides, the inhibition at 10 µM in assay [1] (setting [10]) is 79.5%; in assay [2] ([cpd] 10 μM, read-out: Inhibition of Spontaneous Adhesion in encephalitogenic lymphocytes (% of control/non-treated cells) VCAM-1 (converted)), 9%. The inhibition at 25 µM is 90% in assay [1] ([cpd] 25 μM, read-out: Inhibition of Spontaneous Adhesion in encephalitogenic lymphocytes (% of control/non-treated cells) ICAM-1 (converted)) and 32.5% in assay [2] ([cpd] 25 μM, read-out: Inhibition of Spontaneous Adhesion in encephalitogenic lymphocytes (% of control/non-treated cells) VCAM-1 (converted)). The inhibition at 50 µM in assay [1] (setting [10]) is 92%; in assay [2] ([cpd] 50 μM, read-out: Inhibition of Spontaneous Adhesion in encephalitogenic lymphocytes (% of control/non-treated cells) VCAM-1 (converted)), 71.4%. Moreover, the inhibition at 100 µM in assay [1] ([cpd] 100 μM, read-out: Inhibition of Spontaneous Adhesion in encephalitogenic lymphocytes (% of control/non-treated cells) ICAM-1 (converted)) is 99%. Also, in assay [3] (5-50 μM for 1 h, 1 μM CCL19), the “Block of chemokine-induced autoreactive lymphocyte adhesion, in words” value is given as “almost complete block”. Also, the “Chemokine-induced Adhesion in encephalitogenic lymphocytes, Mean counts ± S.D., in presence of MIP3-β stimulation” value (“Chemokine-induced Adhesion” below) in [3] ([cpd] 5 μM) is recorded as 10.5 ± 3.0; in [3] ([cpd] 10 μM), 8.7 ± 3.0; in [3] ([cpd] 25 μM), 3.5 ± 1.5; in assay [3] ([cpd] 50 μM), 5.0 ± 2.0. Also, the “Adhesion in encephalitogenic lymphocytes, Mean counts ± S.D., in absence of MIP3-β stimulation” value (“Adhesion … in absence of MIP3-β stimulation” below) in assay [3] ([cpd] 5 μM) worked out at 1.5 ± 2.0; in assay [3] ([cpd] 10 μM), 1.8 ± 1.0; in [3] ([cpd] 25 μM) it was 1.2 ± 1.0; in assay [3] ([cpd] 50 μM) it was 0.5 ± 2.0.
Regarding `COc1ccc(-c2c(C#N)n(CCCN(C)C)c3cc(OC)c(OC)cc23)cc1` [Example 55], the inhibition at 10 µM in the assay with PMNs [4] came to 8.4%; in the assay on lymphocytes [5] it was 80%; in the assay with monocytes [6] it was 7.7%; in the assay with PMNs [7], 79.4%; with lymphocytes [8], 43.7%; in the assay on monocytes [9] it was 54.6%. Also, the inhibition at 10 µM in assay [1] (setting [10]) is 12.4%. Moreover, the inhibition at 25 µM in the assay with PMNs [4] is 19%; in the assay on lymphocytes [5] it was 91.9%; in the assay on monocytes [6], 38.5%; with PMNs [7] it was 94.2%; in the assay on lymphocytes [8] it was 84.2%; with monocytes [9], 89.2%. Moreover, the inhibition at 50 µM is 27.4% in the assay with PMNs [4]; 97% with lymphocytes [5]; 97.9% in the assay with monocytes [6]; 96.8% in the assay on PMNs [7]; 91.2% in the assay with lymphocytes [8]; 92.9% in the assay with monocytes [9]. Moreover, in [1] (setting [10]), the inhibition at 50 µM is 96.4%. Moreover, the inhibition at 5 µM in assay [1] is 7.6%. The “Chemokine-induced Adhesion” value is given as 98.3 ± 13.7 in assay [3] ([cpd] 10 μM) and 46.9 ± 6.2 in assay [3] ([cpd] 50 μM). The figures for the “Adhesion … in absence of MIP3-β stimulation” value in assay [3] ([cpd] 10 μM) and in assay [3] ([cpd] 50 μM) were 53.5 ± 3.5 and 13.2 ± 3.7, respectively.
Take `COc1cc2[nH]c(-c3nnc[nH]3)c(-c3ccccc3)c2cc1OC` [Example 58]: the inhibition at 10 µM turned out to be 33.1% in the assay with PMNs [4]; 92.1% in the assay with lymphocytes [5]; 6.8% in the assay on monocytes [6]; 53.9% in the assay with PMNs [7]; 49.3% in the assay with lymphocytes [8]; 51.7% in the assay with monocytes [9]. In assay [1] (setting [10]), the inhibition at 10 µM is 49.5%. The inhibition at 25 µM in the assay with PMNs [4] was 45%; with lymphocytes [5] it was 93.9%; in the assay on monocytes [6], 10.6%; in the assay on PMNs [7], 87.5%; in the assay on lymphocytes [8], 82.9%; in the assay on monocytes [9], 87.5%. Besides, the inhibition at 50 µM in the assay with PMNs [4] was 61.4%; in the assay on lymphocytes [5], 94.7%; in the assay with monocytes [6], 16.6%; with PMNs [7] it was 97.9%; with lymphocytes [8], 92.2%; in the assay on monocytes [9], 97.8%. The inhibition at 50 µM in assay [1] (setting [10]) is 95.6%. Further, the inhibition at 5 µM in assay [1] came out at 40.7%. The entries for the “Chemokine-induced Adhesion” value in assay [3] ([cpd] 10 μM) and in assay [3] ([cpd] 50 μM) were 73.2 ± 5.5 and 46.8 ± 4.7, respectively. Besides, the “Adhesion … in absence of MIP3-β stimulation” value in assay [3] ([cpd] 10 μM) stood at 48.7 ± 6.5; in assay [3] ([cpd] 50 μM), 19.8 ± 5.8.
